Laboratory results: patent publication US8318781B2, “G-protein-conjugated receptor agonist” (Japan Science and Technology Agency, priority 2007, dated 2012)

Biological target: T1, human GPR120 (hGPR120) (Homo sapiens, UniProt Q5NUL3)
T1 construct: expressed in transfected cells; doxycycline-inducible expression vector
T1 sequence (Q5NUL3 1-361): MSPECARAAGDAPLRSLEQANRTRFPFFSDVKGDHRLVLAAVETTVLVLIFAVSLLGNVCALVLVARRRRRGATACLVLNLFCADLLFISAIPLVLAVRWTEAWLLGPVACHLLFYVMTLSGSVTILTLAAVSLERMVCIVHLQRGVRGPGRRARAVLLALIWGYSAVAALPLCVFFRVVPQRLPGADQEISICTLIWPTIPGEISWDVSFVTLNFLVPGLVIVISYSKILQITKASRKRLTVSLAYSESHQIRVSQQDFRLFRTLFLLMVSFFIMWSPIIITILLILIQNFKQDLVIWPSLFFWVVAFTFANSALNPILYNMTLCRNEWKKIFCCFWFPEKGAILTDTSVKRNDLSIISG
Assay: Determination of intracellular Ca2+ concentration (FLIPR), cell line TXGPR120
Format: cell-based
Conditions: for selectivity between GPR40 and GPR120 (in words), from Tables 3 and 4: GPR40 versus GPR120, Ca2+ and ERK results; for EC50 / [Ca^2+]/GPR120 10 μM (ratio vs. LA): TXGPR120 cells; for EC50: maximum fluorescence intensity vs ligand concentration, read-out: [Ca^2+]/GPR120 pEC50 (converted); for agonistic activity for hGPR120 (in words): cells in which GPR120 has been transgenically expressed; for [Ca^2+]/GPR120 10 μM (ratio vs. LA): relative fluorescence intensity vs LA at 10 μM

## CN(C)c1ccc(N(CCOc2ccc(CCCC(=O)O)cc2)c2ccccn2)cc1 [NCG54]
  selectivity between GPR40 and GPR120 (in words), from Tables 3 and 4: acting relatively mildly for GPR40 but acting strongly for GPR120
  EC50: 15.8 µM
  agonistic activity for hGPR120 (in words): exhibit a similar effect
  [Ca^2+]/GPR120 10 μM (ratio vs. LA): 0.66

## O=C(O)CCCc1ccc(OCCN(c2ccccc2)c2nccs2)cc1 [NCG46]
  selectivity between GPR40 and GPR120 (in words), from Tables 3 and 4: acting relatively mildly for GPR40 but acting strongly for GPR120
  EC50: 5.25 µM
  agonistic activity for hGPR120 (in words): exhibit a similar effect
  [Ca^2+]/GPR120 10 μM (ratio vs. LA): 1.60
